Values quoted from earlier work in patent publication US20090264528A1, “SERINE PALMITOYLCOA TRANSFERASE (SPT) INHIBITION BY MYRIOCIN OR GENETIC DEFICIENCY DECREASES CHOLESTEROL ABSORPTION” (The Research Foundation of State University of New York, priority 2008, published 2009).

Details: apoE KO mice; cited from earlier work

CCCCCCCCc1ccc(CCC(N)(CO)CO)cc1 [FTY720]
plasma cholesterol levels: increases
